Assay results published in US10570179B2, “Substituted urea depsipeptide analogs as activators of the CLPP endopeptidase” (priority 2016, dated 2020).
Values after ≈ are worked out from the molar mass of the structure shown. Read-outs that look alike come from different tables or passages of the source. Numbered stars: 1 amine (or outer) side, 2 acyl side, 3 side chain; on linkers, the order of the positions; unused ones are H or OH. Bridge positions count the residues as written; N and C are the ends. Square brackets hold non-standard residues; d marks the D form. Peptide text beside a SMILES is read from it. * marks the point of attachment. X5 = O=C([C@@H]1C[C@@H](OP(=O)(O)O)CN1[*:1])[*:2]; Phe(3-CF3) = N[C@@H](Cc1cccc(C(F)(F)F)c1)C(=O)O; Piperazine(2S-CO,4-Me) = CN1CCN[C@H](C(=O)O)C1; Phe(3,5-F2) = N[C@@H](Cc1cc(F)cc(F)c1)C(=O)O; Phe(3-OMe) = COc1cccc(C[C@H](N)C(=O)O)c1; Phe(3-Me) = Cc1cccc(C[C@H](N)C(=O)O)c1; Pro(4S-Me) = C[C@@H]1CN[C@H](C(=O)O)C1; NH(4-Cl-2-F-phenyl) = Fc1cc(Cl)ccc1N*; Pro(4R-Me) = C[C@H]1CN[C@H](C(=O)O)C1; Hyp = O=C(O)[C@@H]1C[C@@H](O)CN1; NH(4-Et-phenyl) = CCc1ccc(N*)cc1; NH(4-Me-phenyl) = Cc1ccc(N*)cc1; aThr = C[C@H](O)[C@H](N)C(=O)O; Pip = O=C(O)[C@@H]1CCCCN1; X3 = c1cc2c(cc1N*)OCCO2; CO = O=C([*:1])[*:2]

What was measured:
Plasma stability assay = type: in vitro ADME, mouse
Summary of the method: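 Compounds at 10 μM final in human or mouse plasma, incubated at 37 °C and sampled at 0, 3, 24 and 48 h in triplicate. Reactions quenched with cold acetonitrile containing warfarin internal standard; parent measured by LC-MS. Half-life from least-squares first-order fit.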

Solubility determination = type: physicochemical; details: for solubility kinetic at 10 min: 22 °C, aqueous buffer, kinetic from dmso stock
Summary of the method: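 DMSO stock spiked into DPBS at 100 µM final, in triplicate, shaken 10 min, then centrifuged 20 min at 22 °C. Supernatant quantified by UPLC-UV and single-ion-recording MS against DMSO calibration standards (0.098–100 µM), using 1/x²-weighted linear regression.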

[1] = Microsomal metabolic stability; type: in vitro ADME, human
[2] = plasma stability half-life, mouse plasma, 37° C.
[3] = solubility in DPBS, 100 μM test samples, LCMS, read-out: LCMS
[4] = microsomal metabolic stability half-life, human liver microsomes

Compound | Mouse (Plasma stability assay; mouse, 10 μM) [h] | μsol (μM) (Solubility determination) [µM] | solubility kinetic at 10 min (Solubility determination) [µM] | Human ([1]; human, pH 7.4) | Mouse (Plasma stability assay; [2]) [h] | solubility kinetic at 10 min (Solubility determination; [3]) [µM] | μsol (μM) (Solubility determination; solubility) | Human [1, 4] | Mouse (hr) (Plasma stability assay; [2]) | μsol (μg/mL) (Solubility determination; solubility) [µg/mL]
Cc1cccc(C[C@H](NC(=O)Nc2ccc(Cl)cc2F)C(=O)N[C@@H]2C(=O)N3C[C@H](O)C[C@H]3C(=O)N3CCN(C)C[C@H]3C(=O)N[C@@H](C)C(=O)N3C[C@H](C)C[C@H]3C(=O)O[C@H]2C)c1 [Compound 31, (S)-2-(3-(4-CHLORO-2-FLUOROPHENYL)UREIDO)-N-((6AS,8R,12S,13S,15AS,17R,21S,23AS)-8-HYDROXY-2,13,17,21-TETRAMETHYL-6,11,15,20,23-PENTAOXOOCTADECAHYDRO-2H,6H,11H,15H-PYRAZINO[2,1-I]DIPYRROLO[2,1-C:2′,1′-L][1]OXA[4,7,10,13]TETRAAZACYCLOHEXADECIN-12-YL)-3-(M-TOLYL)PROPANAMIDE] ({NH(4-Cl-2-F-phenyl)-CO}-[Phe(3-Me)][aThr][Hyp][Piperazine(2S-CO,4-Me)]A[Pro(4R-Me)]; ester 2-C) | >50 | 54.7 ± 4.7 | 68.9 ± 8.9 (≈ 58.9 µg/mL) | 3.87 ± .875 h |  |  |  |  |  | 
C[C@@H]1C[C@H]2C(=O)OC[C@H](NC(=O)[C@H](Cc3cc(F)cc(F)c3)NC(=O)Nc3ccc(Cl)cc3F)C(=O)N3CCC[C@H]3C(=O)N3CCN(C)C[C@H]3C(=O)N[C@@H](C)C(=O)N2C1 [Compound 34] ({NH(4-Cl-2-F-phenyl)-CO}-[Phe(3,5-F2)]SP[Piperazine(2S-CO,4-Me)]A[Pro(4R-Me)]; ester 2-C) | 21.18 | 38.7 ± 8.7 | 53.6 ± 3.58 (≈ 45.4 µg/mL) | 0.77 ± .775 h |  |  |  |  |  | 
C[C@@H]1C[C@H]2C(=O)OC[C@H](NC(=O)[C@H](Cc3cccc(C(F)(F)F)c3)NC(=O)Nc3ccc(Cl)cc3F)C(=O)N3CCC[C@H]3C(=O)N3CCN(C)C[C@H]3C(=O)N[C@@H](C)C(=O)N2C1 [Compound 18, (S)-2-(3-(4-CHLORO-2-FLUOROPHENYL)UREIDO)-3-(3-(TRIFLUOROMETHYL)PHENYL)-N-((6AS,12S,15AS,17R,21S,23AS)-2,17,21-TRIMETHYL-6,11,15,20,23-PENTAOXOOCTADECAHYDRO-2H,6H,11H,15H-PYRAZINO[2,1-I]DIPYRROLO[2,1-C:2′,1′-L][1]OXA[4,7,10,13]TETRAAZACYCLOHEXADECIN-12-YL)PROPANAMIDE] ({NH(4-Cl-2-F-phenyl)-CO}-[Phe(3-CF3)]SP[Piperazine(2S-CO,4-Me)]A[Pro(4R-Me)]; ester 2-C) | 66.31 | 22.7 ± 0.8 | 22.6 ± 2.1 (≈ 19.9 µg/mL) | 0.75 ± 0.11 h |  |  |  |  |  | 
Cc1cccc(C[C@H](NC(=O)Nc2ccc(Cl)cc2F)C(=O)N[C@H]2COC(=O)[C@@H]3C[C@@H](C)CN3C(=O)[C@H](C)NC(=O)[C@@H]3CCCCN3C(=O)[C@@H]3CCCN3C2=O)c1 [Compound 8, (S)-2-(3-(4-CHLORO-2-FLUOROPHENYL)UREIDO)-N-((2R,6S,8AS,14AS,20S,23AS)-2,6-DIMETHYL-5,8,14,19,23-PENTAOXOOCTADECAHYDRO-1H,5H,14H,19H-PYRIDO[2,1-I]DIPYRROLO[2,1-C:2′,1′-L][1]OXA[4,7,10,13]TETRAAZACYCLOHEXADECIN-20-YL)-3-(M-TOLYL)PROPANAMIDE] | >50 | 8.8 ± 0.7 | 2.79 ± 0.5 (≈ 2.26 µg/mL) | 0.89 ± 0.13 h |  |  |  |  |  | 
Cc1ccc(NC(=O)N[C@@H](Cc2cccc(C)c2)C(=O)N[C@H]2COC(=O)[C@@H]3CCCN3C(=O)[C@H](C)NC(=O)[C@@H]3CCCCN3C(=O)[C@@H]3C[C@@H](O)CN3C2=O)cc1 [Compound 49, (S)—N-((6S,8AS,14AS,16R,20S,23AS)-16-HYDROXY-6-METHYL-5,8,14,19,23-PENTAOXOOCTADECAHYDRO-1H,5H,14H,19H-PYRIDO[2,1-I]DIPYRROLO[2,1-C:2′,1′-L][1]OXA[4,7,10,13]TETRAAZACYCLOHEXADECIN-20-YL)-3-(M-TOLYL)-2-(3-(P-TOLYL)UREIDO)PROPANAMIDE] |  |  |  |  | 22.75 | 17 ± 6.97 (≈ 13.1 µg/mL) | 8.5 ± .51 µM | 0.81 ± .813 h |  | 
Cc1cccc(C[C@H](NC(=O)Nc2ccc(Cl)cc2F)C(=O)N[C@@H]2C(=O)N3C[C@H](OP(=O)(O)O)C[C@H]3C(=O)N3CCCC[C@H]3C(=O)N[C@@H](C)C(=O)N3C[C@H](C)C[C@H]3C(=O)O[C@H]2C)c1 [Compound 29, (2R,6S,8AS,14AS,16R,20S,21S,23AS)-20-((S)-2-(3-(4-CHLORO-2-FLUOROPHENYL)UREIDO)-3-(M-TOLYL)PROPANAMIDO)-2,6,21-TRIMETHYL-5,8,14,19,23-PENTAOXOOCTADECAHYDRO-1H,5H,14H,19H-PYRIDO[2,1-I]DIPYRROLO[2,1-C:2′,1′-L][1]OXA[4,7,10,13]TETRAAZACYCLOHEXADECIN-16-YL DIHYDROGEN PHOSPHATE] ({NH(4-Cl-2-F-phenyl)-CO}-[Phe(3-Me)][aThr][X5][Pip]A[Pro(4R-Me)]; ester 2-C) |  |  |  |  | 102.25 | 66.6 ± 6.6 | 58.7 ± 8.7 µM | >4 h |  | 
CCc1ccc(NC(=O)N[C@@H](Cc2cccc(C)c2)C(=O)N[C@H]2COC(=O)[C@@H]3C[C@@H](C)CN3C(=O)[C@H](C)NC(=O)[C@@H]3CN(C)CCN3C(=O)[C@@H]3CCCN3C2=O)cc1 [Compound 16, (S)-2-(3-(4-ETHYLPHENYL)UREIDO)-3-(M-TOLYL)-N-((6AS,12S,15AS,17R,21S,23AS)-2,17,21-TRIMETHYL-6,11,15,20,23-PENTAOXOOCTADECAHYDRO-2H,6H,11H,15H-PYRAZINO[2,1-I]DIPYRROLO[2,1-C:2′,1′-L][1]OXA[4,7,10,13]TETRAAZACYCLOHEXADECIN-12-YL)PROPANAMIDE] ({NH(4-Et-phenyl)-CO}-[Phe(3-Me)]SP[Piperazine(2S-CO,4-Me)]A[Pro(4R-Me)]; ester 2-C) | 6.86 ± 0.7 | 47.4 ± 5.7 | 53.2 ± 6.5 (≈ 42.6 µg/mL) | 0.86 ± 0.07 h |  |  |  |  |  | 
Cc1cccc(C[C@H](NC(=O)Nc2ccc3c(c2)OCCO3)C(=O)N[C@@H]2C(=O)N3CCC[C@H]3C(=O)N3CCCC[C@H]3C(=O)N[C@@H](C)C(=O)N3C[C@H](C)C[C@H]3C(=O)O[C@H]2C)c1 [Compound 21, (S)-2-(3-(2,3-DIHYDROBENZO[B][1,4]DIOXIN-6-YL)UREIDO)-3-(M-TOLYL)-N-((2R,6S,8AS,14AS,20S,21S,23AS)-2,6,21-TRIMETHYL-5,8,14,19,23-PENTAOXOOCTADECAHYDRO-1H,5H,14H,19H-PYRIDO[2,1-I]DIPYRROLO[2,1-C:2′,1′-L][1]OXA[4,7,10,13]TETRAAZACYCLOHEXADECIN-20-YL)PROPANAMIDE] ({X3-CO}-[Phe(3-Me)][aThr]P[Pip]A[Pro(4R-Me)]; ester 2-C) | >50 | 36.8 ± 1.6 | 30.6 ± 0.7 (≈ 25.4 µg/mL) | 4.49 ± 0.68 h |  |  |  |  |  | 
Cc1ccc(NC(=O)N[C@@H](Cc2cccc(C)c2)C(=O)N[C@@H]2C(=O)N3CCC[C@H]3C(=O)N3CCCC[C@H]3C(=O)N[C@@H](C)C(=O)N3C[C@@H](C)C[C@H]3C(=O)O[C@H]2C)cc1 [Compound 45, (S)-3-(M-TOLYL)-2-(3-(P-TOLYL)UREIDO)-N-((2S,6S,8AS,14AS,20S,21S,23AS)-2,6,21-TRIMETHYL-5,8,14,19,23-PENTAOXOOCTADECAHYDRO-1H,5H,14H,19H-PYRIDO[2,1-I]DIPYRROLO[2,1-C:2′,1′-L][1]OXA[4,7,10,13]TETRAAZACYCLOHEXADECIN-20-YL)PROPANAMIDE] ({NH(4-Me-phenyl)-CO}-[Phe(3-Me)][aThr]P[Pip]A[Pro(4S-Me)]; ester 2-C) |  |  |  |  | >50 | 44.5 ± 2.7 (≈ 35 µg/mL) | 44.7 ± 4.2 µM | 2.77 ± 0.3 h |  | 
COc1cccc(C[C@H](NC(=O)Nc2ccc(Cl)cc2F)C(=O)N[C@H]2COC(=O)[C@@H]3C[C@@H](C)CN3C(=O)[C@H](C)NC(=O)[C@@H]3CN(C)CCN3C(=O)[C@@H]3CCCN3C2=O)c1 [Compound 19, (S)-2-(3-(4-CHLORO-2-FLUOROPHENYL)UREIDO)-3-(3-METHOXYPHENYL)-N-((6AS,12S,15AS,17R,21S,23AS)-2,17,21-TRIMETHYL-6,11,15,20,23-PENTAOXOOCTADECAHYDRO-2H,6H,11H,15H-PYRAZINO[2,1-I]DIPYRROLO[2,1-C:2′,1′-L][1]OXA[4,7,10,13]TETRAAZACYCLOHEXADECIN-12-YL)PROPANAMIDE] ({NH(4-Cl-2-F-phenyl)-CO}-[Phe(3-OMe)]SP[Piperazine(2S-CO,4-Me)]A[Pro(4R-Me)]; ester 2-C) | 12.82 | 51.5 ± 1.1 | 55.9 ± 2.9 (≈ 47 µg/mL) | 0.61 ± 0.06 h |  |  |  |  |  | 
Cc1ccc(NC(=O)N[C@@H](Cc2cccc(C)c2)C(=O)N[C@@H]2C(=O)N3CCC[C@H]3C(=O)N3CCCC[C@H]3C(=O)N[C@@H](C)C(=O)N3C[C@H](C)C[C@H]3C(=O)O[C@H]2C)cc1 [Compound 1, (S)-3-(M-TOLYL)-2-(3-(P-TOLYL)UREIDO)-N-((2R,6S,8AS,14AS,20S,21S,23AS)-2,6,21-TRIMETHYL-5,8,14,19,23-PENTAOXOOCTADECAHYDRO-1H,5H,14H,19H-PYRIDO[2,1-I]DIPYRROLO[2,1-C:2′,1′-L][1]OXA[4,7,10,13]TETRAAZACYCLOHEXADECIN-20-YL)PROPANAMIDE] ({NH(4-Me-phenyl)-CO}-[Phe(3-Me)][aThr]P[Pip]A[Pro(4R-Me)]; ester 2-C) |  |  |  |  |  | 22.9 (≈ 18 µg/mL) | 40.7 µM | 11.45 h | >>48 hr | 32.0
